Data as given in patent US10501479B2, “Benzenesulfonyl-asymmetric ureas and medical uses thereof” (HELSINN HEALTHCARE SA, priority 2016, dated 2019).
Where two headings read alike, the source gives them in different places.

Legend:
[1] = molecular target: T1, recombinant human ghrelin receptor (HEK293/GRLN) (Homo sapiens, UniProt Q92847); test: Ghrelin inverse agonist potency (EC50) with IP-1 (IP-One HTRF) assay; format: cell-based; details: IP-1 assay
T1 construct: expressed in transfected cells
Summary of the method: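 IP-1 accumulation was measured by HTRF (IP1-d2/Tb-cryptate, 620/665 nm read after 1 hour at room temperature) following 1 hour of compound treatment at 37° C. Cells were HEK293 stably expressing human ghrelin receptor, plated a day earlier on Matrigel. Inverse agonist potency was reported as EC50.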

[2] = molecular target: T2, GHSR-1a (HEK293/GHSR1a cell line) (Homo sapiens, UniProt Q92847); test: Ghrelin antagonist potency (IC50) with calcium FLIPR assay, ghrelin 10 nM; format: cell-based; details: ghrelin antagonist potency
T2 construct: expressed in transfected cells; host or cells: HEK293/GHSR1a cell line
Summary of the method: (§1)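 In this assay, compound alone assesses agonism, while compound co-added with ghrelin at 10 nM assesses antagonism. In both modes the calcium-dye signal is tracked for 2 min from t=20 sec.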

[3] = Animal PK study in mouse via i.v., p.o. and s.c. administration; format: in vivo; details: for PK CLiv / PK Vdiv / PK t1/2iv: i.v.; for PK CLpo / PK Vdpo / PK t1/2po: p.o.
Method: All treated animals received a single dose of a test compound (either through i.v., p.o., or s.c. administration) according to the regimen shown in the following table:
For oral dose groups, appropriate amount of test compound was prepared in the following formulation carrier: 1% DMSO (increase to 5% maximum if necessary) and 0.5% Methycellulose. Each mouse or rat received by oral gavage 10 mL/kg of the formulation mixture.
For i.v. and s.c dose groups, appropriate amount of test compound was dissolved in 1% DMSO (increase to 5% maximum if necessary), 99% of 20% HP-β-Cyclodextron (w/v). The pH was adjusted accordingly. Each mouse or rat received 5 mL/kg of the formulation mixture. i.v. dose was administered by tail vein injection. Subcutaneous injection was administered over the shoulders, into the loose skin over the neck. At designated time points (e.g., i.v. and s.c.: 0.083, 0.25, 0.5, 1, 2, 4, 8 and 24 hrs; p.o.: 0.25, 0.5, 1, 2, 4, 8 and 24 hrs), systemic samples of blood (50 μL in mouse or 500 μL in rat) were collected by puncture (submandibular vein in mouse or jugular vein in rat) into vacutainers containing EDTA-K2 as anti-coagulant. The blood was centrifuged at 6000 rpm for 8 min at 4° C. to obtain plasma. All plasma samples were stored at −20° C. All plasma samples were added to acetonitrile for protein precipitation and quantitatively analyzed by LC-MS/MS.

[4] = molecular target: T2, GHSR-1a (HEK293/GHSR1a cell line); test: Ghrelin agonist potency (EC50) with calcium FLIPR assay; format: cell-based; details: ghrelin agonist potency, read-out: Activity EC50/EMax
Summary of the method: as §1

[5] = inverse agonist potency, read-out: EC50 (Activity)
[6] = ghrelin inverse agonist potency, read-out: Activity EC50

T2 sequence (Q92847 whole entry): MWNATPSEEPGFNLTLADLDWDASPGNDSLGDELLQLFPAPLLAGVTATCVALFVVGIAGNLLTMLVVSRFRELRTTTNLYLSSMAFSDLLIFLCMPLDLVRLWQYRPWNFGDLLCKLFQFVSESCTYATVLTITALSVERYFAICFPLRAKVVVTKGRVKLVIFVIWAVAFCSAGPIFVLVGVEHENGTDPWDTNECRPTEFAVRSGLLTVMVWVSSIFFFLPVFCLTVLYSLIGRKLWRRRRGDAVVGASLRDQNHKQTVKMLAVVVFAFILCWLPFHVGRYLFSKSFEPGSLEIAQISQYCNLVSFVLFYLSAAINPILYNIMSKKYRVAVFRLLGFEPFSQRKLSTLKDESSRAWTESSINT
T1 sequence (Q92847 whole entry): as above

SMILES | EC50 [1, 6] [nM] | EC50 [4] [nM] | IC50 ([2]; read-out: Activity IC50) [nM] | other results
C[C@H](NC(=O)Nc1ccc(S(=O)(=O)Nc2ccc3c(c2)CCNC3)cc1)c1cccc(Cl)c1Cl.Cl [H1004, (S)-4-(3-(1-(2,3-dichlorophenyl)ethyl)ureido)-N-(1,2,3,4-tetrahydroisoquinolin-6-yl)benzenesulfonamide] | – | – | – | EC50 [1, 5]: 3.97 nM; IC50 ([2]; read-out: IC50 (Activity)): 3.7 nM; PK F [3]: 13%; PK CLiv [3]: 592 mL/min/kg; PK Vdiv [3]: 37.7 L/kg; PK t1/2iv [3]: 0.74 h; PK CLpo [3]: 3732 mL/min/kg; PK Vdpo [3]: 479.2 L/kg; PK t1/2po [3]: 1.48 h
COc1ccc([C@H](C)NC(=O)Nc2ccc(S(=O)(=O)Nc3ccc4c(c3)CCNC4)cc2)c(Cl)c1Cl.Cl [H1005, (S)-4-(3-(1-(2,3-dichloro-4-methoxyphenyl)ethyl)ureido)-N-(1,2,3,4-tetrahydroisoquinolin-6-yl)benzenesulfonamide] | – | – | – | EC50 [1, 5]: 8.88 nM; IC50 ([2]; read-out: IC50 (Activity)): 19.8 nM; PK F [3]: 1.3%; PK CLiv [3]: 7.33 mL/min/kg; PK Vdiv [3]: 1.46 L/kg; PK t1/2iv [3]: 2.3 h; PK CLpo [3]: 555.5 mL/min/kg; PK Vdpo [3]: 112.3 L/kg; PK t1/2po [3]: 2.33 h
CCOC(=O)N1CCc2cc(NS(=O)(=O)c3ccc(NC(=O)N[C@@H](C)c4cccc(Cl)c4Cl)cc3)ccc2C1 [H1054, ethyl (S)-6-((4-(3-(1-(2,3-dichlorophenyl)ethyl)ureido)phenyl)sulfonamido)-3,4-dihydroisoquinoline-2(1H)-carboxylate] | – | – | – | IC50 ([2]; read-out: IC50 (Activity)): 10100 nM; PK F [3]: 3.0%; PK CLiv [3]: 27 mL/min/kg; PK Vdiv [3]: 4.32 L/kg; PK t1/2iv [3]: 1.85 h; PK CLpo [3]: 898 mL/min/kg; PK Vdpo [3]: 96.2 L/kg; PK t1/2po [3]: 1.24 h
CC(NC(=O)Nc1ccc2c(c1)S(=O)(=O)C(c1ccc3c(c1)CNC3)C2=O)c1ccccc1 (centres unmarked) [H1522, 1-(2-(isoindolin-5-yl)-1,1-dioxido-3-oxo-2,3-dihydrobenzo[b]thiophen-6-yl)-3-(1-phenylethyl)urea] | 1890 | > 30000 | 3850 | –
COc1cc(S(=O)(=O)Cc2ccc3c(c2)CC(C)NC3)ccc1NC(=O)N(O)C(C)c1ccccc1 (centres unmarked) [H1524, 1-hydroxy-3-(2-methoxy-4-(((3-methyl-1,2,3,4-tetrahydroisoquinolin-6-yl)methyl)sulfonyl)phenyl)-1-(1-phenylethyl)urea] | 12.6 | > 30000 | 9.77 | –
COc1cc(S(=O)(=O)Cc2ccc3c(c2)CCN(C)C3)ccc1NC(=O)N(O)C(C)c1ccccc1 (centres unmarked) [H1525, 1-hydroxy-3-(2-methoxy-4-(((2-methyl-1,2,3,4-tetrahydroisoquinolin-6-yl)methyl)sulfonyl)phenyl)-1-(1-phenylethyl)urea] | 25.5 | > 30000 | 37.4 | –
CC(NC(=O)Nc1ccc(S(=O)(=O)Cc2ccc3c(c2)CNC3)cc1-c1ccnn1C)c1ccccc1 (centres unmarked) [H1528, 1-(4-((isoindolin-5-ylmethyl)sulfonyl)-2-(1-methyl-1H-pyrazol-5-yl)phenyl)-3-(1-phenylethyl)urea] | 83.3 | > 30000 | 581 | –
CNC(=O)c1cc(NC(=O)NC(C)c2ccccc2)ccc1S(=O)(=O)Cc1ccc2c(c1)CNC2 (centres unmarked) [H1529, 2-((isoindolin-5-ylmethyl)sulfonyl)-N-methyl-5-(3-(1-phenylethyl)ureido)benzamide] | 27.8 | > 30000 | 47.4 | –
CC(NC(=O)Nc1ccc(S(=O)(=O)Cc2ccc3c(c2)CNC3)c(C(=O)O)c1)c1ccccc1 (centres unmarked) [H1530, 2-((isoindolin-5-ylmethyl)sulfonyl)-5-(3-(1-phenylethyl)ureido)benzoic acid] | 784 | > 30000 | 614 | –
CC(NC(=O)Nc1ccc(S(=O)(=O)Cc2ccc3c(c2)CNC3)c(C(N)=O)c1)c1ccccc1 (centres unmarked) [H1531, 2-((isoindolin-5-ylmethyl)sulfonyl)-5-(3-(1-phenylethyl)ureido)benzamide] | 444 | > 30000 | 418 | –
CC(NC(=O)Nc1ccc(S(=O)(=O)Cc2ccc3c(c2)CNC3)cc1-c1cn[nH]c1)c1ccccc1 (centres unmarked) [H1532, 1-(4-((isoindolin-5-ylmethyl)sulfonyl)-2-(1H-pyrazol-4-yl)phenyl)-3-(1-phenylethyl)urea] | 69.5 | > 30000 | 1660 | –
CC(NC(=O)Nc1ccc(S(=O)(=O)Cc2ccc3c(c2)CNC3)cc1-c1cccnc1)c1ccccc1 (centres unmarked) [H1533, 1-(4-((isoindolin-5-ylmethyl)sulfonyl)-2-(pyridin-3-yl)phenyl)-3-(1-phenylethyl)urea] | 76.2 | > 30000 | 1700 | –
CC(NC(=O)Nc1ccc(S(=O)(=O)Cc2ccc3c(c2)CNC3)cc1-c1ccncc1)c1ccccc1 (centres unmarked) [H1534, 1-(4-((isoindolin-5-ylmethyl)sulfonyl)-2-(pyridin-4-yl)phenyl)-3-(1-phenylethyl)urea] | 89.5 | > 30000 | 1660 | –
CC(NC(=O)Nc1ccc(S(=O)(=O)Cc2ccc3c(c2)CNC3)cc1-c1cnn(C)c1)c1ccccc1 (centres unmarked) [H1535, 1-(4-((isoindolin-5-ylmethyl)sulfonyl)-2-(1-methyl-1H-pyrazol-4-yl)phenyl)-3-(1-phenylethyl)urea] | 21.4 | > 30000 | 493 | –
C[C@@H](NC(=O)Nc1ccc(S(=O)(=O)Cc2ccc3c(c2)C(F)CN(C)C3)cc1)c1ccccc1 (stereo partly drawn) [H1539, 1-(4-(((4-fluoro-2-methyl-1,2,3,4-tetrahydroisoquinolin-6-yl)methyl)sulfonyl)phenyl)-3-((R)-1-phenylethyl)urea] | 263 | > 30000 | 8050 | –
C[C@@H](NC(=O)Nc1ccc(S(=O)(=O)Cc2ccc3c(c2)C(F)CNC3)cc1)c1ccccc1 (stereo partly drawn) [H1540, 1-(4-(((4-fluoro-1,2,3,4-tetrahydroisoquinolin-6-yl)methyl)sulfonyl)phenyl)-3-((R)-1-phenylethyl)urea] | 206 | > 30000 | 7440 | –
CC(NC(=O)Nc1ccc(S(=O)(=O)Cc2ccc3c(c2)C(F)(F)CNC3)cc1)c1ccccc1 (centres unmarked) [H1545, 1-(4-(((4,4-difluoro-1,2,3,4-tetrahydroisoquinolin-6-yl)methyl)sulfonyl)phenyl)-3-(1-phenylethyl)urea] | 19.1 | > 30000 | 1720 | –
CC(NC(=O)Nc1ccc(S(=O)(=O)Cc2ccc3c(c2)C(F)(F)CN(C)C3)cc1)c1ccccc1 (centres unmarked) [H1546, 1-(4-(((4,4-difluoro-2-methyl-1,2,3,4-tetrahydroisoquinolin-6-yl)methyl)sulfonyl)phenyl)-3-(1-phenylethyl)urea] | 126 | > 30000 | 1080 | –
CC(NC(=O)Nc1ccc(S(=O)(=O)Cc2ccc3c(c2)C(F)(F)CNC3)cc1)c1cccc(Cl)c1Cl (centres unmarked) [H1547, 1-(1-(2,3-dichlorophenyl)ethyl)-3-(4-(((4,4-difluoro-1,2,3,4-tetrahydroisoquinolin-6-yl)methyl)sulfonyl)phenyl)urea] | 35 | > 30000 | 456 | –
CC(NC(=O)Nc1ccc(S(=O)(=O)Cc2ccc3c(c2)C(F)(F)CN(C)C3)cc1)c1cccc(Cl)c1Cl (centres unmarked) [H1548, 1-(1-(2,3-dichlorophenyl)ethyl)-3-(4-(((4,4-difluoro-2-methyl-1,2,3,4-tetrahydroisoquinolin-6-yl)methyl)sulfonyl)phenyl)urea] | 132 | > 30000 | 655 | –
CC(NC(=O)Nc1ccc(S(=O)(=O)Cc2ccc3c(c2)CNC3)cc1C(=O)O)c1cccc(Cl)c1Cl (centres unmarked) [H1549, 2-(3-(1-(2,3-dichlorophenyl)ethyl)ureido)-5-((isoindolin-5-ylmethyl)sulfonyl)benzoic acid] | 1.2 | > 30000 | 1.69 | –
